Where two headings read alike, the source gives them in different places.
Tests used:
[1] = system: patients with Wilson disease (WD); conditions: for Transformed CGI-I Mean (SD): scores −3 (Very much improved) to 3 (Very much worse)
Source text: Dose modification, if required, was made as described herein.

[2] = system: ^64Cu hepatic uptake, biliary copper excretion; conditions: 4 WD patients, FIG. 30
Description: 15 minutes after intravenous administration of ^64Cu, a dynamic PET-MR scan was performed, followed by additional scans at 1, 2, 6, 20, 48, 54, and 68 hours. Venous blood samples were collected for quantitation of radioactivity at multiple time points.
The post-treatment ^64Cu PET-MR study was initiated on the 7th day, with serial PET-MR imaging conducted 1, 2, 6, 20, 48, 54, and 68 hours after intravenous administration of ^64Cu.
The study also assessed the kinetics of ^64Cu in the blood and its distribution among organs of interest. The SUV allows for semiquantitative assessment of copper in a desired volume of interest by measuring the ratio of observed copper activity to the total dose administered.

[3] = system: ^64CuCl2 (^64Cu) intestinal absorption and hepatic copper uptake; experiment: Example 2: Copper Absorption study, oral 64Cu PET-CT in healthy subjects; format: in vivo, human
Description: Blood was collected at several time points to assess plasma copper kinetics. The study was carried out as a randomized, placebo-controlled intervention study. […] The study assessed the previously listed organs and the effect of anti-copper treatment by comparing the mean standard uptake value (SUV) in the organs of interest. […] The dynamic baseline scans and the subsequent static scans were compared across all treatments.

[4] = human, in vivo
Source text: Pharmacokinetics: Blood samples for PK analysis were collected to measure plasma total molybdenum and plasma ultrafiltrate (PUF) molybdenum.

[5] = healthy subjects, after 15 hours

Bis-choline tetrathiomolybdate [BC-TTM]
UWDRS Part II (0-40) LSM (SE) change from baseline ([1]; Week 96): −1.1 (0.30)
UWDRS Part II (0-40) Mean (SD) change from baseline ([1]; Week 96): −1.1 (3.61)
UWDRS Part III (0-175) LSM (SE) change from baseline ([1]; Week 96): −4.77 (0.865)
UWDRS Part III (0-175) Mean (SD) change from baseline ([1]; Week 96): −4.09 (10.827)
UWDRS Part III functional subscale (0-10) LSM (SE) change from baseline ([1]; Week 96): −0.386 (0.0801)
UWDRS Part III functional subscale (0-10) Mean (SD) change from baseline ([1]; Week 96): −0.503 (0.9648)
UWDRS Part III-arising from chair (0-4) LSM (SE) change from baseline ([1]; Week 96): −0.1 (0.05)
UWDRS Part III-arising from chair (0-4) Mean (SD) change from baseline ([1]; Week 96): −0.2 (0.76)
UWDRS Part III-gait (0-4) LSM (SE) change from baseline ([1]; Week 96): −0.12 (0.143)
UWDRS Part III-gait (0-4) Mean (SD) change from baseline ([1]; Week 96): −0.11 (1.390)
UWDRS Part III-handwriting (0-4) LSM (SE) change from baseline ([1]; Week 96): −0.3 (0.06)
UWDRS Part III-handwriting (0-4) Mean (SD) change from baseline ([1]; Week 96): −0.4 (0.66)
UWDRS Part III-speech (0-4) LSM (SE) change from baseline ([1]; Week 96): −0.2 (0.05)
UWDRS Part III-speech (0-4) Mean (SD) change from baseline ([1]; Week 96): −0.2 (0.57)
Transformed CGI-I Mean (SD) ([1]; Week 96): −0.5 (0.98)
CGI-S (1 to 7, 1 is normal) LSM (SE) change from baseline ([1]; Week 120): −0.7 (0.11)
CGI-S (1 to 7, 1 is normal) Mean (SD) change from baseline ([1]; Week 120): −0.6 (1.06)
UWDRS Part II (0-40) LSM (SE) change from baseline ([1]; Week 120): −1.7 (0.35)
UWDRS Part II (0-40) Mean (SD) change from baseline ([1]; Week 120): −1.4 (3.48)
UWDRS Part III (0-175) LSM (SE) change from baseline ([1]; Week 120): −5.27 (1.016)
UWDRS Part III (0-175) Mean (SD) change from baseline ([1]; Week 120): −4.08 (11.618)
UWDRS Part III functional subscale (0-10) LSM (SE) change from baseline ([1]; Week 120): −0.392 (0.0952)
UWDRS Part III functional subscale (0-10) Mean (SD) change from baseline ([1]; Week 120): −0.410 (1.1867)
UWDRS Part III-arising from chair (0-4) LSM (SE) change from baseline ([1]; Week 120): −0.1 (0.06)
UWDRS Part III-arising from chair (0-4) Mean (SD) change from baseline ([1]; Week 120): −0.2 (0.83)
UWDRS Part III-gait (0-4) LSM (SE) change from baseline ([1]; Week 120): 0.04 (0.172)
UWDRS Part III-gait (0-4) Mean (SD) change from baseline ([1]; Week 120): 0.26 (1.683)
UWDRS Part III-handwriting (0-4) LSM (SE) change from baseline ([1]; Week 120): −0.3 (0.07)
UWDRS Part III-handwriting (0-4) Mean (SD) change from baseline ([1]; Week 120): −0.5 (0.68)
UWDRS Part III-speech (0-4) LSM (SE) change from baseline ([1]; Week 120): −0.2 (0.06)
UWDRS Part III-speech (0-4) Mean (SD) change from baseline ([1]; Week 120): −0.1 (0.61)
Transformed CGI-I Mean (SD) ([1]; Week 120): −0.7 (0.92)
CGI-S (1 to 7, 1 is normal) LSM (SE) change from baseline ([1]; Week 144): −0.6 (0.12)
CGI-S (1 to 7, 1 is normal) Mean (SD) change from baseline ([1]; Week 144): −0.6 (0.78)
UWDRS Part II (0-40) LSM (SE) change from baseline ([1]; Week 144): −2.0 (0.39)
UWDRS Part II (0-40) Mean (SD) change from baseline ([1]; Week 144): −2.0 (4.68)
UWDRS Part III (0-175) LSM (SE) change from baseline ([1]; Week 144): −6.38 (1.112)
UWDRS Part III (0-175) Mean (SD) change from baseline ([1]; Week 144): −5.99 (12.215)
UWDRS Part III functional subscale (0-10) LSM (SE) change from baseline ([1]; Week 144): −0.489 (0.1046)
UWDRS Part III functional subscale (0-10) Mean (SD) change from baseline ([1]; Week 144): −0.573 (1.2617)
UWDRS Part III-arising from chair (0-4) LSM (SE) change from baseline ([1]; Week 144): −0.2 (0.07)
UWDRS Part III-arising from chair (0-4) Mean (SD) change from baseline ([1]; Week 144): −0.3 (1.03)
UWDRS Part III-gait (0-4) LSM (SE) change from baseline ([1]; Week 144): −0.25 (0.186)
UWDRS Part III-gait (0-4) Mean (SD) change from baseline ([1]; Week 144): 0.00 (1.950)
UWDRS Part III-handwriting (0-4) LSM (SE) change from baseline ([1]; Week 144): −0.3 (0.08)
UWDRS Part III-handwriting (0-4) Mean (SD) change from baseline ([1]; Week 144): −0.5 (0.59)
UWDRS Part III-speech (0-4) LSM (SE) change from baseline ([1]; Week 144): −0.3 (0.07)
UWDRS Part III-speech (0-4) Mean (SD) change from baseline ([1]; Week 144): −0.2 (0.59)
Transformed CGI-I Mean (SD) ([1]; Week 144): −0.7 (0.76)
mean SUV for the other organs after treatment [2]: did not change
copper uptake in the liver one hour after oral 64Cu tracer ([3]; healthy subject, FIG. 25): virtually no copper uptake in the liver
Absorption of orally-administered copper compared to penicillamine, trientine, or placebo ([3]; healthy subjects): significantly reduced
blood levels of 64Cu ([3]; healthy subjects): reduced
mean SUV liver / hepatic uptake of labeled copper, comparison between treatments ([3]; healthy subjects, 1 hour and 15 hours after oral 64Cu): significantly lower
reduction of mean hepatic copper uptake ([3]; healthy subjects, 1 hr scan post treatment, oral 64Cu, 7 days treatment): ~90%
range of reduction in hepatic copper uptake ([3]; healthy subjects, 13 hour scan): 60%-90%
mean SUV liver compared with baseline or placebo ([3]; healthy subjects, FIG. 26): markedly reduced
mean SUV 64Cu Pancreas post treatment ([3]; healthy subjects, after 1 hour): lower than penicllamine, trientine and placebo
mean SUV 64Cu Urinary bladder post treatment ([3]; healthy subjects, after 1 hour): lower than penicllamine, trientine and placebo
mean SUV 64Cu Colon post treatment [3, 5]: higher than penicillamine and placebo
mean SUV 64Cu Gallbladder post treatment [3, 5]: lower than penicllamine, trientine and placebo
Daily Mean AUC(0-48 weeks) PUF Mo, Mean [4]: 0.1 mmol/L

From patent US20250082674A1, “METHODS OF TREATING COPPER METABOLISM-ASSOCIATED DISEASES OR DISORDERS” (priority 2021, published 2025)
